# Assay results published in patent US11099188B2, “ROS kinase in lung cancer” (CELL SIGNALING TECHNOLOGY, INC., priority 2006, dated 2021).
# Key:
# [1] = molecular target: T1, FIG-ROS(S) (Homo sapiens, UniProt P08922); test: Western blotting of phosphorylation in FIG-ROS(S) expressing BaF3 cells; assay type: cell-based
# T1 construct: expressed in transfected cells; host or cells: BaF3 cells, retrovirally transduced, selected for IL3-independent growth
# Description: (§1) All antibodies were from Cell Signaling Technology, Inc. (Danvers, Mass.)
# (§2) Since ROS, ALK, LTK, InsR, and IGF1R belong to the same family of tyrosine kinases, they may share similar structure in the kinase domain.
# [2] = molecular target: FIG-ROS(L) (Homo sapiens, UniProt P08922); test: Western blotting of phosphorylation in FIG-ROS(L) expressing BaF3 cells; assay type: cell-based
# Description: as §1, §2
# [3] = test system: BaF3 cells transduced with the FLT-3ITD retrovirus; test: Western blotting of phosphorylation in BaF3 cells transduced with the FLT-3ITD retrovirus; assay type: cell-based
# Description: as §1, §2
# [4] = test system: BaF3 expressing FIG-ROS(L); test: MTS assay, growth of BaF3 cells expressing FIG-ROS(L); assay type: cell-based; settings: for IC50: Mus musculus, BaF3, 72 h
# Description: (§3) BaF3 and Karpas 299 cells were obtained from DSMZ (Deutsche Sammlung von Mikroorganismen and Zellkulturen GmbH, Germany). BaF3 cells, which need interleukin-3 to survive, were maintained at 37° C. in RPMI-1640 medium (Invitrogen) with 10% fetal bovine serum (FBS) (Sigma) and 1.0 ng/ml murine IL-3 (R&D Systems). Karpas 299 cells (a lymphoma cell line) were grown in RPMI-1640 with 10% FBS.
# (§4) BaF3 cells were transduced with retrovirus encoding FIG-ROS(S), FIG-ROS(L), or FLT-3ITD (the Internal tandem duplication mutation in FLT3 causes AML leukemia), and selected for IL3 independent growth. Karpas 299 cells, which express NPM-ALK, was used as a positive control. Retroviruses were generated as previously described (see PCT Publication No. WO 2010/093928, incorporated by reference).
# (§5) A MTS assay was performed using the CellTiter 96 Aqueous One Solution Reagent (Promega, Catalog No G3582). […] After 72 hours, 20 μl of the CellTiter 96 Aqueous One Solution Reagent was added into each well of a 96 well assay plate (flat bottom), and then 100 μl of cells grown with or without treatment. Media-only wells were used as controls. The 96 well plate was incubated for 1-4 hours at 37° C., and then viable cells were counted by reading the absorbance at 490 nm using a 96 well plate reader.
# [5] = test system: BaF3 expressing FIG-ROS(S); test: MTS assay, growth of BaF3 cells expressing FIG-ROS(S); assay type: cell-based; settings: for IC50: Mus musculus, BaF3, 72 h
# Description: as §3, §4, §5
# [6] = test system: BaF3 expressing FLT3ITD; test: cells; settings: for IC50: Mus musculus, BaF3, 72 h
# Description: as §3, §4, §5
# [7] = test system: Karpas 299 cells; test: cells; settings: for IC50: Homo sapiens, KARPAS-299, 72 h
# Description: as §3, §4, §5
# [8] = test system: BaF3 cells transduced with neo-myc; test: MTS assay, growth of BaF3 cells transduced with neo-myc (negative control); assay type: cell-based; settings: Mus musculus, 72 hours, second experiment only
# Description: as §3, §5
# [9] = test system: BaF3 cells expressing FIG-ROS(S); test: Flow cytometry, cleaved caspase-3 as apoptosis marker, BaF3 FIG-ROS(S); assay type: cell-based; settings: in the presence of TAE-684, FIG. 19
# Description: (§6) The mechanism of death of the BaF3 and Karpas 299 cells was next assessed by measuring the percentage of cleaved-caspase 3 positive cells by flow cytometry assay using cleaved caspase-3 as a marker for apoptosis.
# [10] = test system: BaF3 cells expressing FIG-ROS(L); test: Flow cytometry, cleaved caspase-3 as apoptosis marker, BaF3 FIG-ROS(L); assay type: cell-based; settings: in the presence of TAE-684, FIG. 19
# Description: as §6
# [11] = test system: Karpas 299 cells; test: Flow cytometry, cleaved caspase-3 as apoptosis marker, Karpas 299; assay type: cell-based; settings: in the presence of TAE-684, FIG. 19
# Description: as §6
# [12] = test system: ALK in Karpas 299 cells; test: Western blotting of phosphorylation in Karpas 299 cells; assay type: cell-based; settings: 0, 10, 50, or 100 nM for three hours, FIG. 20
# Description: as §1, §2
# [13] = 0, 0.1, 0.3, or 1.0 uM for three hours, FIG. 22
# [14] = 72 hours, first of two experiments
# [15] = 72 hours, second of two experiments
# [16] = same concentration of each, 0-1.0 uM, FIG. 21A/21B
# [17] = 0, 10, 50, or 100 nM for three hours, FIG. 20
structure (smiles),measurement,setting,value
C[C@@H](Oc1cc(-c2cnn(C3CCNCC3)c2)cnc1N)c1c(Cl)ccc(F)c1Cl [crizotinib],phosphorylation of FIG-ROS(S),[1]; [13],inhibited
same,phosphorylation of STAT3 and ERK,[1]; [13],inhibited
same,phosphorylation of FIG-ROS(L),[2]; [13],inhibited
same,phosphorylation of STAT3 and ERK,[2]; [13],inhibited
same,phosphorylation of STAT3 and ERK,[3]; [13],not affected
COc1cc(N2CCC(N3CCN(C)CC3)CC2)ccc1Nc1ncc(Cl)c(Nc2ccccc2S(=O)(=O)C(C)C)n1 [TAE-684],cellular growth response in the presence of TAE-684,"[4]; 0-1000 nM, 72 hours, FIG. 18",stopped growing
same,IC50,[4]; [14],1.78 nM
same,IC50,[4]; [15],2.84 nM
same,"sensitivity of cellular growth, TAE-684 compared with crizotinib",[4]; [16],more sensitive to TAE-684 than to crizotinib
same,cellular growth response in the presence of TAE-684,"[5]; 0-1000 nM, 72 hours, FIG. 18",stopped growing
same,IC50,[5]; [14],10.2 nM
same,IC50,[5]; [15],15 nM
same,"sensitivity of cellular growth, TAE-684 compared with crizotinib",[5]; [16],more sensitive to TAE-684 than to crizotinib
same,cellular growth response in the presence of TAE-684,"[6]; 0-1000 nM, 72 hours, FIG. 18",not susceptible
same,IC50,[6]; first of two experiments,419 nM
same,IC50,[6]; second of two experiments,316 nM
same,cellular growth response in the presence of TAE-684,"[7]; 0-1000 nM, 72 hours, FIG. 18",stopped growing
same,IC50,[7]; first of two experiments,4.85 nM
same,IC50,[7]; second of two experiments,4.36 nM
same,IC50,[8],1640 nM
same,"mechanism of death, cleaved-caspase 3 positive cells (apoptosis)",[9],die by apoptosis
same,"mechanism of death, cleaved-caspase 3 positive cells (apoptosis)",[10],die by apoptosis
same,"mechanism of death, cleaved-caspase 3 positive cells (apoptosis)",[11],did not die by apoptosis
same,phosphorylation of FIG-ROS(S),[1]; [17],inhibited
same,"phosphorylation of STAT3, AKT, and ERK, and Shp2",[1]; [17],inhibited
same,phosphorylation of FIG-ROS(L),[2]; [17],inhibited
same,"phosphorylation of STAT3, AKT, and ERK, and Shp2",[2]; [17],inhibited
same,"phosphorylation of STAT3, AKT, and ERK, and Shp2",[3]; [17],not affected
same,ALK and ERK phosphorylation,[12],inhibited
